Measurements taken from patent US12441693B2, “Targeting STAT sumoylation to enhance immune responses” (THE GEORGE WASHINGTON UNIVERSITY, priority 2018, dated 2025).

Legend:
[1] = test system: primary human CD4 T cells; test: Viability of primary CD4 T cells in the screening; format: cell-based; settings: at the concentration tested
Description: It was observed that the ability of different benzotriazole and benzotriazin derivatives to increase STAT5 phosphorylation correlated with the ability of the compounds to induce the expression of CD69 (a STAT5 target gene) (FIG. 2A) but not CD25 (FIG. 2B) in the surface of human CD4 T cells. Based on these findings, a primary cell screening assay was set up according to FIG. 2C to identify derivatives with similar activity. As an example, flow cytometry was performed to isolated activated cells (FIG. 2D), which were expanded in the presence of DMSO or a compound of interest (FIG. 2E), and screened for changes in the expression of CD69 (FIG. 2F).

[2] = test system: NK cells; settings: single agent, 48 hours
Description: To determine if STAT SUMOylation increases Gzm B expression in NK cells, isolated human NK cells were analyzed after a 3-day incubation with either IL-2, IL-15, HODHBt, IL-2+IL-15, HODHBt+IL-2, HODHBt+IL-15, or HODHBt+IL-2+IL-15.
To further characterize the effects of STAT SUMOylation inhibition in NK cell function, primary human NK cells were isolated and cultured with IL-15 in the presence or absence of HODHBt. 48 hours later, cells were phenotyped by flow cytometry.
To characterize the induction of other proteins known to be important for the cytolytic activity of NK cells, primary human NK cells were isolated from 6 male and 6 female donors and cultured with IL-15 in the presence or absence of HODHBt. 48 hours later, levels of Granzyme A (FIG. 18A), Perforin (FIG. 18B), Granulysin (FIG. 18C), TRAIL (FIG. 18D) and Fas ligand (FASL) (FIG. 18E) were analyzed by flow cytometry.
Antibody-dependent cell-mediated cytotoxicity (ADCC) is mediated by the recognition of an antibody bound to a cell through an Fc receptor present in NK cells, mostly CD16 (FCGR3A). To address whether inhibiting STAT SUMOylation alters CD16 expression in the surface of NK cells, freshly isolated NK cells were treated with either IL-15, HODHBt or a combination of both for 48 hours and surface expression of CD16 was measured by flow cytometry.
Since IL-15 activated STATs, it was hypothesized that STATs, and in particular STAT1, was controlling expression of CXCR5 (C—X—C Motif Chemokine Receptor 5) and that inhibiting STAT SUMOylation enhances CXCR5 expression and promotes migration towards a CXCL13 (C—X—C Motif Chemokine Ligand 13) gradient. CXCL13 controls homing of lymphocytes to follicles in lymph nodes; however whether this mechanism of regulation exists in human NK cells and whether IL-15 controls expression were unknown. To address which one of the two scenarios was potentially playing a role in the presence of NK cells within the follicles, human NK cells were treated with IL-15, HODHBt or a combination of both for 48 hours. Surface expression of CXCR5 and viability were next measured by flow cytometry.
To phenotype the cells, 1×10^5 cells were stained with a viability dye (Fixable Viability Dye eFluor 450, Affymetrix, eBioscience, San Diego, CA) and the surface marker-specific mAb specific for human: PE-anti-CD25 (Caltag, Burlingame, CA) and PE-anti-CD69 (Caltag, Burlingame, CA) followed by flow cytometric analysis in a BD FACScanto II flow cytometer using the FACSDiva software (Becton Dickinson, Mountain View, CA) and analyzed using FlowJo (Tree Star Inc., Ashland, OR).

[3] = test system: K562; test: NK cell killing of K562 cells, E:T 1:1, 4 hours; format: cell-based, human; settings: NK cells pretreated with single agent, E:T 1:1, 4 hours
Description: It was therefore hypothesized that inhibiting STAT SUMOylation may enhance the ability of IL-15 stimulated NK cells to clear the HIV latent reservoir. To test the hypothesis, NK cells were treated with DMSO, IL-15-stimulated, treated with HODHBt or IL-15-stimulated and treated with HODHBt. Cells were then tested in their ability to kill the erythroleukemia cell line K562, which lack MHC-I. In an experiment, the NK cells from two donors were co-cultured with K562 at an E:T ratio of 1:1 for 4 hours (FIG. 19A). NK cells were pretreated with IL-15, HODHBt, or a combination of both.

| Molecule | toxicity / viability of primary CD4 T cells [1] | surface expression of CD69 on NK cells [2] | surface expression of CXCR5 on NK cells [2] | expression of Granzyme A, Perforin, Granulysin, TRAIL and FASL in NK cells ([2]; 6 male and 6 female donors) | expression of GZMB in NK cells ([2]; vs media control) | killing of K562 by pretreated NK cells [3] |
| --- | --- | --- | --- | --- | --- | --- |
| CC(C)(C)OC(=O)NCc1ccc(C(=O)On2nnc3ccccc3c2=O)cc1 [BIN024] | high levels of toxicity |  |  |  |  |  |
| IL-15: interleukin-15 (IL-15), cytokine |  | induced the surface expression of CD69 | induced surface expression of CXCR5 | induced the expression of all these genes | increased the expression of GZMB | induced increase killing of K562 over a 4-hour period |
